# In article PMC6429214, “Design, Synthesis and Biological Evaluation of Isoxazole-Based CK1 Inhibitors Modified with Chiral Pyrrolidine Scaffolds” (Molecules, 2019):
# Assays:
# Test in all cases: 33PanQinase panel
# Assay type in all cases: biochemical
# [1] = molecular target: T1, CDK3/CycC (Homo sapiens, UniProt Q00526); conditions: read-out: Residual Activity (%)
# T1 construct: purchased ProQinase
# Method in brief: (§1)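 Single-point screen at 1 µM in a 320 wild-type kinase panel using activity-based radiometric 33P assay; final DMSO 1%. Values are percent residual kinase activity relative to DMSO control.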
# [2] = molecular target: T2, IKK-alpha (Homo sapiens, UniProt O15111); conditions: read-out: Residual Activity (%)
# T2 construct: purchased ProQinase
# Method in brief: as §1
# [3] = molecular target: T3, RON (Homo sapiens, UniProt Q04912); conditions: read-out: Residual Activity (%)
# T3 construct: purchased ProQinase
# Method in brief: as §1
# [4] = molecular target: T4, TRK-B (Homo sapiens, UniProt Q16620); conditions: read-out: Residual Activity (%)
# T4 construct: purchased ProQinase
# Method in brief: as §1
# [5] = molecular target: T5, STK33 (Homo sapiens, UniProt Q9BYT3); conditions: STK33, 1 µM; read-out: Residual Activity (%)
# T5 construct: purchased ProQinase
# Method in brief: as §1
# [6] = molecular target: T6, AXL (Homo sapiens, UniProt P30530); conditions: read-out: Residual Activity (%)
# T6 construct: purchased ProQinase
# T6 sequence (P30530 26-894): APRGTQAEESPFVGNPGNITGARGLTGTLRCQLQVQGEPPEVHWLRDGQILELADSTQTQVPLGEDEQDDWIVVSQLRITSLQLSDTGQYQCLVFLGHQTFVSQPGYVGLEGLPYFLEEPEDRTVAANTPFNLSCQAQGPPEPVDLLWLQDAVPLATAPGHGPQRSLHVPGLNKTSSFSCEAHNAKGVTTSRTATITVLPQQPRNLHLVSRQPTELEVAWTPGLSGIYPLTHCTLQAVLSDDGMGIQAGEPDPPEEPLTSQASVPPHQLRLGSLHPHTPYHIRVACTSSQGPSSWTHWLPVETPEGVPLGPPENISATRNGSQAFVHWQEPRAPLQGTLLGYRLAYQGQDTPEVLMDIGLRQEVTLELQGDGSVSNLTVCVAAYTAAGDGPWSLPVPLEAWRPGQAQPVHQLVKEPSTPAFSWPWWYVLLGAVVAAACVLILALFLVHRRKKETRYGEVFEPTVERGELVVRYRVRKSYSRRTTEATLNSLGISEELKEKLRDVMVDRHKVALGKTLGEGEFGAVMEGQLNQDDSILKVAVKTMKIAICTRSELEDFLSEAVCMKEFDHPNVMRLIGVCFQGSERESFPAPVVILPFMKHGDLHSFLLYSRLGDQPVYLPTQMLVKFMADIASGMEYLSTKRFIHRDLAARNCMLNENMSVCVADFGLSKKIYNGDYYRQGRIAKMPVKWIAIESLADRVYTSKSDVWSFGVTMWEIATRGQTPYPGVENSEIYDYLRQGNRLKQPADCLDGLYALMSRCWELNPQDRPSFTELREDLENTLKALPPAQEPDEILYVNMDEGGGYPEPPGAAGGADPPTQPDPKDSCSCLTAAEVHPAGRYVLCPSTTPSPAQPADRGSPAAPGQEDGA
# Method in brief: as §1
# [7] = molecular target: T7, S6K-beta (Homo sapiens, UniProt Q9UBS0); conditions: read-out: Residual Activity (%)
# T7 construct: purchased ProQinase
# T7 sequence (Q9UBS0 whole entry): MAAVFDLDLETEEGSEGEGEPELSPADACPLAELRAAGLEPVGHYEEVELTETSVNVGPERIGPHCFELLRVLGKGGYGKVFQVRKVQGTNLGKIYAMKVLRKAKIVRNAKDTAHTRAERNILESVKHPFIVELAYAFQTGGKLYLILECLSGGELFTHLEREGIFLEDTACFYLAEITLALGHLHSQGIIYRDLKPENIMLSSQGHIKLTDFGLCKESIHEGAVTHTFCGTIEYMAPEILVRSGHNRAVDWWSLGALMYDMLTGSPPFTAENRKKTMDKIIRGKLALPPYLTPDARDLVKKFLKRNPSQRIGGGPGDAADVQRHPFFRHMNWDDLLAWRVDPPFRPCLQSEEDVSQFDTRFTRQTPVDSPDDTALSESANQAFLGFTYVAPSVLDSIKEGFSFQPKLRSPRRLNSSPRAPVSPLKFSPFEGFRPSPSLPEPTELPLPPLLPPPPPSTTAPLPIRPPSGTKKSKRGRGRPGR
# Method in brief: as §1
# [8] = molecular target: T8, PHKG1 (Homo sapiens, UniProt Q16816); conditions: PHKG1, 1 µM; read-out: Residual Activity (%)
# T8 construct: purchased ProQinase
# Method in brief: as §1
# [9] = molecular target: T9, MAP3K11 (Homo sapiens, UniProt Q16584); conditions: MAP3K11, 1 µM; read-out: Residual Activity (%)
# T9 construct: purchased ProQinase
# Method in brief: as §1
# [10] = molecular target: T10, CDK3/CycE1 (Homo sapiens, UniProt Q00526); conditions: CDK3/CycE1, 1 µM; read-out: Residual Activity (%)
# T10 construct: purchased ProQinase
# T10 sequence (Q00526 whole entry): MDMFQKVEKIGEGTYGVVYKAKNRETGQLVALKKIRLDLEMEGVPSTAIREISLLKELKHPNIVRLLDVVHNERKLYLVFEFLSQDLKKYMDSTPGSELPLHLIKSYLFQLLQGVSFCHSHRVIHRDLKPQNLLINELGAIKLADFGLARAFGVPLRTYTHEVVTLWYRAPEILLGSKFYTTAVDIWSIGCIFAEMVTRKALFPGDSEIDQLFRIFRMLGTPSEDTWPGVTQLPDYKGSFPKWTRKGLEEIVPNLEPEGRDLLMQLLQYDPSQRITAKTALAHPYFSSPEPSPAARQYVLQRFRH
# T10 sequence (P24864 whole entry partner): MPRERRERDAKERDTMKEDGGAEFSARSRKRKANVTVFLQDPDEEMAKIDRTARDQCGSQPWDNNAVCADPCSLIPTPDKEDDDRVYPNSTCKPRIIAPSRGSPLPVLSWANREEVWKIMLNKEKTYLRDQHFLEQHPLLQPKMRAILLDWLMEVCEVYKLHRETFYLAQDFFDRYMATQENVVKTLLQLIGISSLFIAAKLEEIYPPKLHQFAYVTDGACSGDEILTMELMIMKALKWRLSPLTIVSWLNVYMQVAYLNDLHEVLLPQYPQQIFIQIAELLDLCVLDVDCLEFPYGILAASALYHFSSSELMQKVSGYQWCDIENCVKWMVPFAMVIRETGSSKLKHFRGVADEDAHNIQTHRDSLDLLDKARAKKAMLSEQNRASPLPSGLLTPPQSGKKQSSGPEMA
# Method in brief: as §1
# [11] = molecular target: T11, CLK1 (Homo sapiens, UniProt P49759); conditions: CLK1, 1 µM; read-out: Residual Activity (%)
# T11 construct: purchased ProQinase
# T11 sequence (P49759 whole entry): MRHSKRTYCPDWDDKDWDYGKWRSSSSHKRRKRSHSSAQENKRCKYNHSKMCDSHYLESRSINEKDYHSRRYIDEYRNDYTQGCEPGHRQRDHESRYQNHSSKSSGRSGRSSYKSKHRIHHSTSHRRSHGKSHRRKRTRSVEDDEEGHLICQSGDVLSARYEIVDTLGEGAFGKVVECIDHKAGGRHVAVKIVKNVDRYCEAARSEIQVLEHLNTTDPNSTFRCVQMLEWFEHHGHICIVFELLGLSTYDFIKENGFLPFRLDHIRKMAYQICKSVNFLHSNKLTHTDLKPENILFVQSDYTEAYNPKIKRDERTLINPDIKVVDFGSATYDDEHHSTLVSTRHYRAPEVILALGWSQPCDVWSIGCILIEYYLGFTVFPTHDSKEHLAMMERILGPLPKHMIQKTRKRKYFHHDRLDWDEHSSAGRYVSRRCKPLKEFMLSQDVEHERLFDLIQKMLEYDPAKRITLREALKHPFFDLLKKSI
# Method in brief: as §1
# [12] = molecular target: T12, TGFB-R2 (Homo sapiens, UniProt P37173); conditions: TGFB-R2, 1 µM; read-out: Residual Activity (%)
# T12 construct: purchased ProQinase
# T12 sequence (P37173 23-567): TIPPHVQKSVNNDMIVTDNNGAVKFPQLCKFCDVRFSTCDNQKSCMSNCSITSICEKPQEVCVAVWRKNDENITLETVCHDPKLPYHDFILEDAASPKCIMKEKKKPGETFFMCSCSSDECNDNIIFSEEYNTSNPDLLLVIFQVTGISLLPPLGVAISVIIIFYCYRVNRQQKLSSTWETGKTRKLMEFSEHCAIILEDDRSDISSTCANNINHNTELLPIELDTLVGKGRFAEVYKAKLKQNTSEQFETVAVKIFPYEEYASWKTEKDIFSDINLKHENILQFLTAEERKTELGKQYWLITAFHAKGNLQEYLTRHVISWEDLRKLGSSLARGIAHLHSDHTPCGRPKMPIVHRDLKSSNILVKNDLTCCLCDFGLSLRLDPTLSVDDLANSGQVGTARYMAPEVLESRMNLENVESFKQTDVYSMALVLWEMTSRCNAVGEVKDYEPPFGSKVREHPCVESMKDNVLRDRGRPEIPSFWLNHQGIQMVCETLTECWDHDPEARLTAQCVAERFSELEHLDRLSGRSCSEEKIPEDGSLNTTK
# Method in brief: as §1
# [13] = molecular target: T13, FAK aa2-1052 (Homo sapiens, UniProt Q05397); conditions: FAK aa2-1052, 1 µM; read-out: Residual Activity (%)
# T13 construct: purchased ProQinase
# Method in brief: as §1
# [14] = molecular target: T14, RPS6KA6 (Homo sapiens, UniProt Q9UK32); conditions: RPS6KA6, 1 µM; read-out: Residual Activity (%)
# T14 construct: purchased ProQinase
# Method in brief: as §1
# [15] = molecular target: T15, ERK7 (Homo sapiens, UniProt Q8TD08); conditions: ERK7, 1 µM; read-out: Residual Activity (%)
# T15 construct: purchased ProQinase
# T15 sequence (Q8TD08 whole entry): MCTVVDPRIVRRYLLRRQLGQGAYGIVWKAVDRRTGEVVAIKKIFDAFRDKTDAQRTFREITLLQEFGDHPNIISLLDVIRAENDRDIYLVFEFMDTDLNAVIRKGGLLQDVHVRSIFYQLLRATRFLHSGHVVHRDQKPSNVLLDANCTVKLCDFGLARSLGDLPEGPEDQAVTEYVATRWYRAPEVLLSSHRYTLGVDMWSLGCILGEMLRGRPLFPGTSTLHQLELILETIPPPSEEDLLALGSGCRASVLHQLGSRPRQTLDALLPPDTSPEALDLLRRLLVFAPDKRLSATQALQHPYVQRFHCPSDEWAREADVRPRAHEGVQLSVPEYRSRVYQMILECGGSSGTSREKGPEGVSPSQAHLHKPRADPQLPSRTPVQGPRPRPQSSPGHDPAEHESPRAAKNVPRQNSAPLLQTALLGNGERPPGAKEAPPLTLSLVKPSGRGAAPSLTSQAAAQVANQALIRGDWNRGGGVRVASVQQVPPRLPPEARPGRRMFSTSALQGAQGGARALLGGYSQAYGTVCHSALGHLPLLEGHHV
# Method in brief: as §1
# [16] = molecular target: T16, PLK3 (Homo sapiens, UniProt Q9H4B4); conditions: PLK3, 1 µM; read-out: Residual Activity (%)
# T16 construct: purchased ProQinase
# Method in brief: as §1
# [17] = molecular target: T17, ASK1 (Homo sapiens, UniProt Q99683); conditions: ASK1, 1 µM; read-out: Residual Activity (%)
# T17 construct: purchased ProQinase
# Method in brief: as §1
# [18] = molecular target: T18, MEK2 (Homo sapiens, UniProt P36507); conditions: MEK2, 1 µM; read-out: Residual Activity (%)
# T18 construct: purchased ProQinase
# Method in brief: as §1
# [19] = molecular target: T19, SRC (GST-HIS-tag) (Homo sapiens, UniProt P12931); conditions: read-out: Residual Activity (%)
# T19 construct: purchased ProQinase
# Method in brief: as §1
# [20] = molecular target: T20, NEK6 (Homo sapiens, UniProt Q9HC98); conditions: NEK6, 1 µM; read-out: Residual Activity (%)
# T20 construct: purchased ProQinase
# Method in brief: as §1
# [21] = molecular target: T21, TLK2 (Homo sapiens, UniProt Q86UE8); conditions: TLK2, 1 µM; read-out: Residual Activity (%)
# T21 construct: purchased ProQinase
# Method in brief: as §1
# [22] = molecular target: T22, MINK1 (Homo sapiens, UniProt Q8N4C8); conditions: MINK1, 1 µM; read-out: Residual Activity (%)
# T22 construct: purchased ProQinase
# Method in brief: as §1
# [23] = molecular target: T23, CK1-alpha1 (Homo sapiens, UniProt P48729); conditions: CK1-alpha1, 1 µM; read-out: Residual Activity (%)
# T23 construct: purchased ProQinase
# T23 sequence (P48729 whole entry): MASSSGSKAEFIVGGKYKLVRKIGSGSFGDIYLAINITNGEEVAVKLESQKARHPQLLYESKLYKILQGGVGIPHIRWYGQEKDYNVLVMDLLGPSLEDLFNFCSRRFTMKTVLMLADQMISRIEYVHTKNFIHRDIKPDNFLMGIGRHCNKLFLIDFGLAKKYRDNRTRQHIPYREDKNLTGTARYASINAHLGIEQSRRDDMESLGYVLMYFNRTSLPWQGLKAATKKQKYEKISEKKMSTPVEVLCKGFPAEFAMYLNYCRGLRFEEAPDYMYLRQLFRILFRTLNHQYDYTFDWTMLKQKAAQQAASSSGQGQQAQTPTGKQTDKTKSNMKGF
# Method in brief: as §1
# [24] = molecular target: T24, WNK3 (Homo sapiens, UniProt Q9BYP7); conditions: WNK3, 1 µM; read-out: Residual Activity (%)
# T24 construct: purchased ProQinase
# Method in brief: as §1
# [25] = molecular target: T25, GRK3 (Homo sapiens, UniProt P35626); conditions: GRK3, 1 µM; read-out: Residual Activity (%)
# T25 construct: purchased ProQinase
# Method in brief: as §1
# [26] = molecular target: T26, MAP3K9 (Homo sapiens, UniProt P80192); conditions: MAP3K9, 1 µM; read-out: Residual Activity (%)
# T26 construct: purchased ProQinase
# Method in brief: as §1
# [27] = molecular target: T27, CAMK1D (Homo sapiens, UniProt Q8IU85); conditions: read-out: Residual Activity (%)
# T27 construct: purchased ProQinase
# T27 sequence (Q8IU85 whole entry): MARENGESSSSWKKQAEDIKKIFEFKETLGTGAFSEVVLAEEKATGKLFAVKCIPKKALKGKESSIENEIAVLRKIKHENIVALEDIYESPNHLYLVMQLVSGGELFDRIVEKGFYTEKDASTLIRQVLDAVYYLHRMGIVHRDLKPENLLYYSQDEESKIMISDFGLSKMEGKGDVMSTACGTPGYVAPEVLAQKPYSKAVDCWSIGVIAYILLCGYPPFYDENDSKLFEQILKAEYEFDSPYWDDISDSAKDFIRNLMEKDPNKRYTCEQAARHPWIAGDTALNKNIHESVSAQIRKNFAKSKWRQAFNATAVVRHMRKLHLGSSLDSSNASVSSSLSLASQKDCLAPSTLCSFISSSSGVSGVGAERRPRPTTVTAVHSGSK
# Method in brief: as §1
# T1 sequence (Q00526 whole entry): as the sequence (Q00526 whole entry) above
# T1 sequence (P24863 whole entry partner): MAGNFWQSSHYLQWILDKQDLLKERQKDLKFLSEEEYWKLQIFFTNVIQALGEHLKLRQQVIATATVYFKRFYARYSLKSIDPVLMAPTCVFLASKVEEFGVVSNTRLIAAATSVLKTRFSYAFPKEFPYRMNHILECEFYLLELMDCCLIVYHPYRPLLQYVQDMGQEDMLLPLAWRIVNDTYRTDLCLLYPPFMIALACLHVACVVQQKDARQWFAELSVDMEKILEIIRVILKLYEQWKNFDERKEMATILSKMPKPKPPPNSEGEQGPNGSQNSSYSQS
smiles,measurement,setting,value
COc1ccc(-c2cc(C(=O)Nc3cc(-c4c(-c5ccc(F)cc5)noc4C(C)C)ccn3)n(CC3NCC(O)C3O)c2)cc1 (stereo not drawn) [29d],remaining activity at 1 µM,[1],100%
same,remaining activity at 1 µM,[2],98%
same,remaining activity at 1 µM,[3],115%
same,remaining activity at 1 µM,[4],120%
same,remaining activity at 1 µM,[5],84%
same,remaining activity at 1 µM,[6],110%
same,remaining activity at 1 µM,[7],96%
same,remaining activity at 1 µM,[8],90%
same,remaining activity at 1 µM,[9],88%
same,remaining activity at 1 µM,[10],103%
same,remaining activity at 1 µM,[11],97%
same,remaining activity at 1 µM,[12],69%
same,remaining activity at 1 µM,[13],120%
same,remaining activity at 1 µM,[14],89%
same,remaining activity at 1 µM,[15],102%
same,remaining activity at 1 µM,[16],112%
same,remaining activity at 1 µM,[17],107%
same,remaining activity at 1 µM,[18],108%
same,remaining activity at 1 µM,[19],125%
same,remaining activity at 1 µM,[20],94%
same,remaining activity at 1 µM,[21],108%
same,remaining activity at 1 µM,[22],82%
same,remaining activity at 1 µM,[23],16%
same,remaining activity at 1 µM,[24],103%
same,remaining activity at 1 µM,[25],109%
same,remaining activity at 1 µM,[26],116%
same,remaining activity at 1 µM,[27],89%
